Measurements from PubChem BioAssay (NCI).
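Method: 48-hour compound exposure of cells in 96-well plates, five concentrations, linear interpolation of endpoints. Here, GI50 denotes the concentration required for 50% inhibition of growth. TGI: concentration producing complete growth inhibition.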

Assays:
Assay in all cases: NCI anticancer screen, dose series, 48 h
[1] = tested on: COLO 205 colon
[2] = tested on: MCF7 breast
[3] = tested on: HT29 colon
[4] = tested on: SW-620 colon
[5] = tested on: NCI-H522 lung
[6] = tested on: OVCAR-8 ovarian
[7] = tested on: U251 CNS
[8] = tested on: MOLT-4 leukemia
[9] = tested on: SK-MEL-5 melanoma
[10] = tested on: SR leukemia
[11] = tested on: CCRF-CEM leukemia
[12] = tested on: HOP-62 NSCLC
[13] = tested on: NCI/ADR-RES ovarian
[14] = tested on: A549 NSCLC
[15] = tested on: M14 melanoma
[16] = tested on: CAKI-1 renal
[17] = tested on: EKVX NSCLC
[18] = tested on: DU-145 prostate
[19] = tested on: SK-OV-3 ovarian
[20] = tested on: HS 578T breast
[21] = tested on: UACC-257 melanoma
[22] = tested on: HCT-15 colon
[23] = tested on: OVCAR-4 ovarian
[24] = tested on: RXF 393 renal
[25] = tested on: LOX IMVI melanoma
[26] = tested on: SN12C renal
[27] = tested on: UACC-62 melanoma
[28] = tested on: SNB-75 CNS
[29] = tested on: ACHN renal
[30] = tested on: PC-3 prostate
[31] = tested on: K-562 leukemia
[32] = tested on: NCI-H460 lung
[33] = tested on: NCI-H226 lung
[34] = tested on: SF-295 CNS
[35] = tested on: SF-268 CNS
[36] = tested on: MDA-MB-231 breast
[37] = tested on: SF-539 CNS
[38] = tested on: MALME-3M melanoma
[39] = tested on: UO-31 renal
[40] = tested on: SK-MEL-28 melanoma
[41] = tested on: TK-10 renal
[42] = tested on: KM12 colon
[43] = tested on: SK-MEL-2 melanoma
[44] = tested on: A498 renal
[45] = tested on: HCC-2998 colon
[46] = tested on: MDA-MB-435
[47] = tested on: RPMI-8226 leukemia
[48] = tested on: SNB-19 CNS
[49] = tested on: HCT-116 colon
[50] = tested on: IGROV1 ovarian
[51] = tested on: T-47D breast
[52] = tested on: OVCAR-5 ovarian
[53] = tested on: NCI-H23 lung
[54] = tested on: BT-549 breast
[55] = tested on: 786-0 renal
[56] = tested on: OVCAR-3 ovarian
[57] = tested on: HL-60(TB) leukemia

O=c1c2cc(-c3ccc(F)cc3F)ccc2n(O)c(=O)n1-c1cccc(C(F)(F)F)c1 gave a GI50 [1] of 1940 nM, a TGI [1] of 4050 nM and a GI50 [2] of 1610 nM. For the same molecule, the TGI [2] was 7120 nM, the GI50 [3] was 4300 nM and the TGI [3] was 26800 nM. It also gave a GI50 [4] of 2050 nM, a TGI [4] of 10500 nM and a GI50 [5] of 369 nM. It also gave a TGI [5] of 2550 nM, a GI50 [6] of 1080 nM and a TGI [6] of 8890 nM. The GI50 [7] was 1860 nM, the TGI [7] was 15700 nM and the GI50 [8] was 419 nM. It also gave a TGI [8] of 2130 nM, a GI50 [9] of 263 nM and a TGI [9] of 708 nM. The GI50 [10] was 259 nM, the TGI [10] was 1880 nM and the GI50 [11] was 3120 nM. The TGI [11] was > 100000 nM, the GI50 [12] was 1800 nM and the TGI [12] was 4340 nM. The GI50 [13] was 1170 nM, the TGI [13] was 10500 nM and the GI50 [14] was 2950 nM. The TGI [14] was 20100 nM, the GI50 [15] was 773 nM and the TGI [15] was 3470 nM. It also gave a GI50 [16] of 1610 nM, a TGI [16] of 6020 nM and a GI50 [17] of 2350 nM. For the same molecule, the TGI [17] was 8470 nM, the GI50 [18] was 2480 nM and the TGI [18] was 49100 nM. For the same molecule, the GI50 [19] was 1130 nM, the TGI [19] was 3880 nM and the GI50 [20] was 837 nM. The TGI [20] was 4420 nM, the GI50 [21] was 1010 nM and the TGI [21] was 4480 nM. For the same molecule, the GI50 [22] was 435 nM, the TGI [22] was 2280 nM and the GI50 [23] was 2190 nM. For the same molecule, the TGI [23] was > 100000 nM, the GI50 [24] was 1050 nM and the TGI [24] was 3140 nM. It also gave a GI50 [25] of 1220 nM, a TGI [25] of 2940 nM and a GI50 [26] of 683 nM. For the same molecule, the TGI [26] was 5410 nM, the GI50 [27] was 323 nM and the TGI [27] was 1310 nM. It also gave a GI50 [28] of 1510 nM, a TGI [28] of 6450 nM and a GI50 [29] of 2080 nM. It also gave a TGI [29] of 10400 nM, a GI50 [30] of 1800 nM and a TGI [30] of 6950 nM. It also gave a GI50 [31] of 424 nM, a TGI [31] of 35000 nM and a GI50 [32] of 668 nM. The TGI [32] was 5230 nM, the GI50 [33] was 1010 nM and the TGI [33] was 3640 nM. The GI50 [34] was 1650 nM, the TGI [34] was 3450 nM and the GI50 [35] was 1750 nM. For the same molecule, the TGI [35] was 15500 nM, the GI50 [36] was 1590 nM and the TGI [36] was 6360 nM. The GI50 [37] was 1470 nM, the TGI [37] was 7940 nM and the GI50 [38] was 1510 nM. For the same molecule, the TGI [38] was 5390 nM, the GI50 [39] was 2230 nM and the TGI [39] was 9300 nM. It also gave a GI50 [40] of 1260 nM, a TGI [40] of 10000 nM and a GI50 [41] of 4190 nM. For the same molecule, the TGI [41] was 9170 nM, the GI50 [42] was 2160 nM and the TGI [42] was 7070 nM. For the same molecule, the GI50 [43] was 534 nM, the TGI [43] was 2290 nM and the GI50 [44] was 347 nM. The TGI [44] was 1260 nM, the GI50 [45] was 2510 nM and the TGI [45] was 9900 nM. For the same molecule, the GI50 [46] was 1560 nM, the TGI [46] was 7670 nM and the GI50 [47] was 1020 nM. For the same molecule, the TGI [47] was 5850 nM, the GI50 [48] was 682 nM and the TGI [48] was > 100000 nM. The GI50 [49] was 420 nM, the TGI [49] was 1610 nM and the GI50 [50] was 2030 nM. It also gave a TGI [50] of 25400 nM, a GI50 [51] of 1490 nM and a TGI [51] of 5760 nM. For the same molecule, the GI50 [52] was 3380 nM, the TGI [52] was 92900 nM and the GI50 [53] was 722 nM. It also gave a TGI [53] of 5300 nM, a GI50 [54] of 437 nM and a TGI [54] of 1580 nM. It also gave a GI50 [55] of 2150 nM and a TGI [55] of 5660 nM.

With CCCCOc1ccc(S(=O)(=O)N2CCN(c3nc(C)cc(N4CCOCC4)n3)CC2)cc1 the GI50 [2] was > 100000 nM, the TGI [2] was > 100000 nM and the GI50 [56] was > 100000 nM. The TGI [56] was > 100000 nM, the GI50 [3] was 888 nM and the TGI [3] was 6230 nM. The GI50 [4] was 2330 nM, the TGI [4] was > 100000 nM and the GI50 [8] was 2270 nM. For the same molecule, the TGI [8] was > 100000 nM, the GI50 [10] was 5460 nM and the TGI [10] was > 100000 nM. For the same molecule, the GI50 [12] was > 100000 nM, the TGI [12] was > 100000 nM and the GI50 [13] was 2450 nM. For the same molecule, the TGI [13] was > 100000 nM, the GI50 [14] was 3850 nM and the TGI [14] was > 100000 nM. The GI50 [16] was 2110 nM, the TGI [16] was > 100000 nM and the GI50 [57] was 420 nM. The TGI [57] was > 100000 nM, the GI50 [18] was 1010 nM and the TGI [18] was > 100000 nM. For the same molecule, the GI50 [20] was > 100000 nM, the TGI [20] was > 100000 nM and the GI50 [22] was 2090 nM. For the same molecule, the TGI [22] was > 100000 nM, the GI50 [25] was 294 nM and the TGI [25] was 942 nM. The GI50 [30] was 4540 nM, the TGI [30] was > 100000 nM and the GI50 [32] was 1670 nM. The TGI [32] was > 100000 nM, the GI50 [35] was 2320 nM and the TGI [35] was > 100000 nM. The TGI [36] was > 100000 nM, the GI50 [37] was > 100000 nM and the TGI [37] was > 100000 nM. The GI50 [38] was > 100000 nM, the TGI [38] was > 100000 nM and the GI50 [42] was 3120 nM. The TGI [42] was > 100000 nM, the GI50 [46] was 1450 nM and the TGI [46] was > 100000 nM. The GI50 [47] was 2640 nM, the TGI [47] was > 100000 nM and the GI50 [48] was > 100000 nM. For the same molecule, the TGI [48] was > 100000 nM, the GI50 [49] was 1440 nM and the TGI [49] was > 100000 nM. The GI50 [50] was 1090 nM, the TGI [50] was > 100000 nM and the GI50 [51] was > 100000 nM. The TGI [51] was > 100000 nM, the GI50 [52] was > 100000 nM and the TGI [52] was > 100000 nM.
